# Experimental data from patent US5578570A, “Method of treating septic shock using thymosin β4” (The George Washington University Medical Center, priority 1994, dated 1996).
# Test system: endotoxic mice
# Assay: Survival of Swiss Webster mice following lethal endotoxin dose and Tβ4
# Assay type: in vivo
# Settings: for Number of Mice Alive: Table II, 8 mice at 0 hr.
# Procedure: Swiss-Webster mice 4-6 weeks of age (20-25 g) were housed 6 per cage. The mice were divided into 2 groups: endotoxic mice (endotoxin 60 mg/kg i.p. in acute treatment) and endotoxic mice treated with Tβ4, 5 minutes and 2, 4, 6, 8, 10, 12, 14, 16, 18, 20, 22, 24 hours post administration of the endotoxin. Survival was recorded 2 times a day for 7 days.
# Swiss-Webster mice 4-6 weeks of age (20-25 g) were divided into groups as follows.
# 1. Mice treated with a lethal dose of endotoxin (60 mg/kg).
# 2. […]
# 3. […]
# 4. […]
substance,measurement,setting,value
Thymosin β4 [Tβ4],protective activity on endotoxin lethality (in words),10 μg Tβ4,sometimes shown positive activity
same,Survival (No. mice alive),"Table I, endotoxin 60 mg/kg + Tβ4 100 μg 1x, 24 hrs, 7 mice at 0 hrs",4
same,Survival (No. mice alive),"Table I, endotoxin 60 mg/kg + Tβ4 100 μg 1x, 48 hrs, 7 mice at 0 hrs",3
same,Survival (No. mice alive),"Table I, endotoxin 60 mg/kg + Tβ4 100 μg 1x, 72 hrs, 7 mice at 0 hrs",3
same,Survival (No. mice alive),"Table I, endotoxin 60 mg/kg + Tβ4 100 μg 2x, 24 hrs, 7 mice at 0 hrs",4
same,Survival (No. mice alive),"Table I, endotoxin 60 mg/kg + Tβ4 100 μg 2x, 48 hrs, 7 mice at 0 hrs",4
same,Survival (No. mice alive),"Table I, endotoxin 60 mg/kg + Tβ4 100 μg 2x, 72 hrs, 7 mice at 0 hrs",4
same,Survival (No. mice alive),"Table I, endotoxin 60 mg/kg + Tβ4 100 μg 3x, 24 hrs, 7 mice at 0 hrs",7
same,Survival (No. mice alive),"Table I, endotoxin 60 mg/kg + Tβ4 100 μg 3x, 48 hrs, 7 mice at 0 hrs",7
same,Survival (No. mice alive),"Table I, endotoxin 60 mg/kg + Tβ4 100 μg 3x, 72 hrs, 7 mice at 0 hrs",7
same,Number of Mice Alive,"endotoxin 60 mg/kg + Tβ4 100 μg 3x, 24 hr.",8
same,Number of Mice Alive,"endotoxin 60 mg/kg + Tβ4 100 μg 3x, 48 hr.",8
same,Number of Mice Alive,"endotoxin 60 mg/kg + Tβ4 100 μg 3x, 72 hr.",8
same,Number of Mice Alive,"endotoxin 60 mg/kg + Tβ4 100 μg 3x, 7 day",8
same,Number of Mice Alive,"endotoxin 60 mg/kg + Tβ4 100 μg 3x, 14 day",8
same,Survival (No. mice alive),"Table VI, endotoxin 60 mg/kg + Tβ4 10 μg 3x, immediately following, 2 and 4 hrs after endotoxin, 24 hrs, 8 mice at 0 hrs",8
same,Survival (No. mice alive),"Table VI, endotoxin 60 mg/kg + Tβ4 10 μg 3x, immediately following, 2 and 4 hrs after endotoxin, 48 hrs, 8 mice at 0 hrs",6
same,Survival (No. mice alive),"Table VI, endotoxin 60 mg/kg + Tβ4 10 μg 3x, immediately following, 2 and 4 hrs after endotoxin, 72 hrs, 8 mice at 0 hrs",6
same,Survival (No. mice alive),"Table VI, endotoxin 60 mg/kg + Tβ4 10 μg 3x, immediately following, 2 and 4 hrs after endotoxin, 96 hrs, 8 mice at 0 hrs",6
same,Survival (No. mice alive),"Table VI, endotoxin 60 mg/kg + Tβ4 10 μg 3x, immediately following, 2 and 4 hrs after endotoxin, 120 hrs, 8 mice at 0 hrs",6
same,Survival (No. mice alive),"Table VI, endotoxin 60 mg/kg + Tβ4 100 μg 3x, 2, 4 and 6 hrs after endotoxin, 24 hrs, 8 mice at 0 hrs",7
same,Survival (No. mice alive),"Table VI, endotoxin 60 mg/kg + Tβ4 100 μg 3x, 2, 4 and 6 hrs after endotoxin, 48 hrs, 8 mice at 0 hrs",4
same,Survival (No. mice alive),"Table VI, endotoxin 60 mg/kg + Tβ4 100 μg 3x, 2, 4 and 6 hrs after endotoxin, 72 hrs, 8 mice at 0 hrs",4
same,Survival (No. mice alive),"Table VI, endotoxin 60 mg/kg + Tβ4 100 μg 3x, 2, 4 and 6 hrs after endotoxin, 96 hrs, 8 mice at 0 hrs",4
same,Survival (No. mice alive),"Table VI, endotoxin 60 mg/kg + Tβ4 100 μg 3x, 2, 4 and 6 hrs after endotoxin, 120 hrs, 8 mice at 0 hrs",4
same,Survival (No. mice alive),"Table VI, endotoxin 60 mg/kg + Tβ4 100 μg 3x, immediately following, 2 and 4 hrs after endotoxin, 24 hrs, 8 mice at 0 hrs",8
same,Survival (No. mice alive),"Table VI, endotoxin 60 mg/kg + Tβ4 100 μg 3x, immediately following, 2 and 4 hrs after endotoxin, 48 hrs, 8 mice at 0 hrs",8
same,Survival (No. mice alive),"Table VI, endotoxin 60 mg/kg + Tβ4 100 μg 3x, immediately following, 2 and 4 hrs after endotoxin, 72 hrs, 8 mice at 0 hrs",8
same,Survival (No. mice alive),"Table VI, endotoxin 60 mg/kg + Tβ4 100 μg 3x, immediately following, 2 and 4 hrs after endotoxin, 96 hrs, 8 mice at 0 hrs",8
same,Survival (No. mice alive),"Table VI, endotoxin 60 mg/kg + Tβ4 100 μg 3x, immediately following, 2 and 4 hrs after endotoxin, 120 hrs, 8 mice at 0 hrs",8
same,Survival (No. mice alive),"Table VII, endotoxin 60 mg/kg + Tβ4 10 μg 3x i.p., immediately following, 2 and 4 hrs after endotoxin, 24 hrs, 10 mice at 0 hrs",3
same,Survival (No. mice alive),"Table VII, endotoxin 60 mg/kg + Tβ4 10 μg 3x i.p., immediately following, 2 and 4 hrs after endotoxin, 48 hrs, 10 mice at 0 hrs",3
same,Survival (No. mice alive),"Table VII, endotoxin 60 mg/kg + Tβ4 10 μg 3x i.p., immediately following, 2 and 4 hrs after endotoxin, 72 hrs, 10 mice at 0 hrs",3
same,Survival (No. mice alive),"Table VII, endotoxin 60 mg/kg + Tβ4 10 μg 3x i.p., immediately following, 2 and 4 hrs after endotoxin, 96 hrs, 10 mice at 0 hrs",3
same,Survival (No. mice alive),"Table VII, endotoxin 60 mg/kg + Tβ4 10 μg 3x i.p., immediately following, 2 and 4 hrs after endotoxin, 5 days, 10 mice at 0 hrs",3
same,Survival (No. mice alive),"Table VII, endotoxin 60 mg/kg + Tβ4 10 μg 3x i.p., immediately following, 2 and 4 hrs after endotoxin, 6 days, 10 mice at 0 hrs",3
same,Survival (No. mice alive),"Table VII, endotoxin 60 mg/kg + Tβ4 20 μg 3x i.p., immediately following, 2 and 4 hrs after endotoxin, 24 hrs, 10 mice at 0 hrs",5
same,Survival (No. mice alive),"Table VII, endotoxin 60 mg/kg + Tβ4 20 μg 3x i.p., immediately following, 2 and 4 hrs after endotoxin, 48 hrs, 10 mice at 0 hrs",4
same,Survival (No. mice alive),"Table VII, endotoxin 60 mg/kg + Tβ4 20 μg 3x i.p., immediately following, 2 and 4 hrs after endotoxin, 72 hrs, 10 mice at 0 hrs",4
same,Survival (No. mice alive),"Table VII, endotoxin 60 mg/kg + Tβ4 20 μg 3x i.p., immediately following, 2 and 4 hrs after endotoxin, 96 hrs, 10 mice at 0 hrs",3
same,Survival (No. mice alive),"Table VII, endotoxin 60 mg/kg + Tβ4 20 μg 3x i.p., immediately following, 2 and 4 hrs after endotoxin, 5 days, 10 mice at 0 hrs",3
same,Survival (No. mice alive),"Table VII, endotoxin 60 mg/kg + Tβ4 20 μg 3x i.p., immediately following, 2 and 4 hrs after endotoxin, 6 days, 10 mice at 0 hrs",3
same,Survival (No. mice alive),"Table VII, endotoxin 60 mg/kg + Tβ4 50 μg 3x i.p., immediately following, 2 and 4 hrs after endotoxin, 24 hrs, 10 mice at 0 hrs",9
same,Survival (No. mice alive),"Table VII, endotoxin 60 mg/kg + Tβ4 50 μg 3x i.p., immediately following, 2 and 4 hrs after endotoxin, 48 hrs, 10 mice at 0 hrs",7
same,Survival (No. mice alive),"Table VII, endotoxin 60 mg/kg + Tβ4 50 μg 3x i.p., immediately following, 2 and 4 hrs after endotoxin, 72 hrs, 10 mice at 0 hrs",7
same,Survival (No. mice alive),"Table VII, endotoxin 60 mg/kg + Tβ4 50 μg 3x i.p., immediately following, 2 and 4 hrs after endotoxin, 96 hrs, 10 mice at 0 hrs",7
